Results from US9844513B2, “Oral pharmaceutical composition” (Sigmoid Pharma Limited, priority 2007, dated 2017).
Like-named read-outs stand apart in the source and are kept apart here.

How the values were obtained:
[1] = cited from earlier work
DSS-induced colitis mice = experiment: DSS-induced colitis in mice (DSS 2.5% in drinking water); assay type: in vivo; settings: 8 mg DMOG every second day
Procedure: Colitis was induced in mice using DSS 2.5% in drinking water. DMOG mini-capsules of example 20 with two different coating were used, namely DSS-bead (0.25 mg—immediate release), and DSS-COAT-bead (DSS-COAT beads coated with 22% Surelease®—DMOG: 0.25 mg/day) and were compared to non-treated DSS-induced colitis mice and mice treated with 8 mg DMOG IP every second day. The minicapsules were prepared using the method described in Example 20 above.
As DMOG is known to increase the production of erythropoietin it is expected that in the presence of systemic DMOG that the packed cell volume would be increased. The packed cell volume (PCV) is a measurement of the proportion of blood that is made up of cells. The value is expressed as a percentage or fraction of cells in blood. The PCV rises when the number of red blood cells increases. […] Thus, it could be concluded that when administered within the intestinal or colonic lumen that it acts locally at low dose and negligible concentrations are systemically available.
Referring to FIG. 21, the disease activity index (DAI) is calculated as the sum of scores of weight loss, stool consistency and blood in feces. […] The minicapsules were prepared using the method described in Example 20 above.
A major symptom of DSS-induced colitis is weight loss. […] Likewise, when 0.25 mg DMOG is administered daily as colon-specific beads (DSS-COAT beads coated with 22% Surelease®—DMOG: 0.25 mg/day), the protective effect is pronounced. […] The minicapsules were prepared using the method described in Example 20 above.

[2] = tested on: antigen specific IgA and IgG; experiment: Antigen specific IgA and IgG in intestinal washes by ELISA after immunisation of mice; assay type: in vivo; settings: intestinal washes one week after booster
Procedure: FIG. 9 represents the immune response in mice immunised with minicapsules as described in Example 5 and Example 6. […] Mice were immunised on 3 consecutive days on week 0 followed by an identical series of booster immunisations at week 2. Intestinal washes were collected one week following the booster and antigen specific IgA and IgG was assessed by ELISA.

Molecule: COc1ccccc1OCCNCC(O)COc1cccc2[nH]c3ccccc3c12 (centres unmarked) [Carvedilol]
- time to reach maximum plasma concentration ([1]; absorbed from the small intestine): within two hours
- relative absorption ([1]; colon): ~7%
- absolute bioavailability ([1]; extensive first-pass metabolism): approximately 25%
- relative absorption ([1]; ileum): ~28%
- half-life ([1]; in vivo): 7 to 10 h
- relative absorption ([1]; jejunum): approximately 56%

Molecule: COC(=O)CNC(=O)C(=O)OC [DMOG, dimethyloxalglycine]
- colon length (colon shortening) (DSS-induced colitis mice; Day 7, IP): significantly reduced colon shortening
- packed cell volume (PCV) (DSS-induced colitis mice; Day 7, IP): increases the PCV
- protective effect (weight loss) compared with non-treated DSS mice (DSS-induced colitis mice; IP): significant protective effect
- Disease Activity Index (DAI) (DSS-induced colitis mice; IP, 7 days): high DAI

B1: OVA in solution: Ovalbumin antigen given in solution, comparison group (protein, UniProt P01012 2-386, looked up)
Ovalbumin: GSIGAASMEFCFDVFKELKVHHANENIFYCPIAIMSALAMVYLGAKDSTRTQINKVVRFDKLPGFGDSIEAQCGTSVNVHSSLRDILNQITKPNDVYSFSLASRLYAEERYPILPEYLQCVKELYRGGLEPINFQTAADQARELINSWVESQTNGIIRNVLQPSSVDSQTAMVLVNAIVFKGLWEKAFKDEDTQAMPFRVTEQESKPVQMMYQIGLFRVASMASEKMKILELPFASGTMSMLVLLPDEVSGLEQLESIINFEKLTEWTSSNVMEERKIKVYLPRMKMEEKYNLTSVLMAMGITDVFSSSANLSGISSAESLKISQAVHAAHAEINEAGREVVGSAEAGVDAASVSEEFRADHPFLFCIKHIATNAVLFFGRCVSP
- titres of antigen specific IgG in the intestinal washes [2]: highest responses
